Measurements reported in patent publication US5026836A, “6-sulfenamide, 6-sulfinamide and 6-sulfonamide purines, purine nucleosides, purine nucleotides, pharmaceutical compositions, and processes of making” (priority 1988, dated 1991).
Entries after “also recorded” stand apart in the source; their conditions may differ. Like-named read-outs stand apart in the source and are kept apart here.

How the values were obtained:
L1210 cells [1] = assay: Bioassay of viable L1210 cells in brain after intracranial inoculation and ip drug; assay type: in vivo, mouse; conditions: for Residual cells (% of control brain): 24 hr after single ip dose (mg/kg): Methotrexate 12, Adriamycin 3, 6-Mercaptopurine 160, Cytosine Arabinoside 1200, Cyclophosphamide 140, Compound 19 173, Tiazofurin 1200, BCNU 20; for intracranial activity: intracranial L1210; for Activity against I.C. L1210 cells, Cell Kill: ip dosage: Compound 18 22 mg/kg, Compound 19 173 mg/kg, Compound 20 62 mg/kg; for crossing of blood brain barrier / CNS penetration (words): mouse, in vivo
Source text: BDF1 mice were inoculated intracranially on day 0 with 1×10^5 L1210 cells. […] 24 hr after drug delivery the brains were collected, homogenized, and injected ip into untreated mice. Each mouse received the equivalent of half a brain. Thereafter, life span was monitored and, using inoculum-response data as a base of comparison, estimates were made of the numbers of viable cells in treated and control brains.

[2] = test system: drug resistant cell lines; conditions: background knowledge; cited from earlier work
adenocarcinoma = conditions: background; cited from earlier work
[3] = test system: Human Colon Adenocarcinoma CX-1; conditions: data from Goldin et al 1981; activity indicated at ≤20; cited from earlier work
[4] = Toxicity / maximum tolerated dosage in mice; assay type: in vivo; conditions: mouse, in vivo, single QD day 1 ip, read-out: Max. tolerated dosage
Procedure: In Example N other compounds of the invention were tested against L1210 cells. […] Activity in Table 14-a is tabulated as both increases in life span and as cells surviving treatment and that in table 14-b as T/C.

[5] = Solubility (maximum solubility); assay type: physicochemical
L1210 cells [6] = assay: L1210 cells surviving treatment (% of original inoculum); assay type: in vivo, mouse; conditions: single QD day 1 ip
Source text: (§1) Values below 25% are considered capable of producing effective therapy, those below 10% are considered good and those below 5% are considered very good. This expresses the percent of the cells which survived treatment based upon the original cells in the inoculum. Those tests expressed as increases in life span (% ILS) indicate the increased life span of the drug treated group compared to a control group.
As an indicator of reproducible activity, compounds of the invention and other known cancer chemotherapeutic agents were screened against L1210 lymphoid leukemia in vivo utilizing the mouse as a test species. Normal NCI protocols for this test require 10^5 seed cells of the L1210 cell line. However for the purposes of tests with the L1210 cell line in testing the compounds of the invention for antitumor activity, a log greater, i.e. 10^6 cells were utilized.
Tables 2-a and 2-b illustrate a dose response for Compound 19 against L1210 inoculated mice expressed as both increased life span compared to control and as the number of cells of the original inoculum surviving drug treatment. As is evident from the various regimens of drug treatment shown in Tables 2-a and 2-b, effective therapeutic effects are noted and a dose response to Compound 19 is evident. […] Cytosine Arabinoside must be given every three hours. Test results are given utilizing standard protocols based on mean survival time and are expressed as T/C percentages (treated animals/control animals).

L1210 cells [7] = assay: Life span of BDF1 mice inoculated ip with 10^6 L1210 leukemia cells; assay type: in vivo, mouse
Procedure: As illustrative examples of use of the compounds of the invention the following examples are given. […] These standard tests utilize protocols developed under the auspices of the Developmental Therapeutics Program, Division of Cancer Treatment, National Cancer Institute, Bethesda, Md., U.S.A. Except as otherwise indicated the tests conform to these protocols and are evaluated utilizing criteria defined by the protocols.
as §1
As an indicator of reproducible activity, compounds of the invention and other known cancer chemotherapeutic agents were screened against L1210 lymphoid leukemia in vivo utilizing the mouse as a test species. Normal NCI protocols for this test require 10^5 seed cells of the L1210 cell line.
Cytosine Arabinoside must be given every three hours.
Mice were inoculated intraperitoneally on day 0 with a million cells of murine leukemia L1210. Drug was given qd days 1, 4 and 7. Increased life span is the mean increase in the treated group presented as a percentage of the mean life span of control mice.
Mice were inoculated intraperitoneally on day 0 with a million cells of murine leukemia L1210. Drugs were given qd days 1, 3, 5 and 7. Increased life span is presented as a percentage of the mean life span of control mice.

[8] = test system: drug resistant cell lines; assay: Generation of drug resistant cell lines
[9] = test system: L1210/6MP, 6TG, 6TGR cells; assay: Life span of mice inoculated with L1210 resistant to 6MP, 6TG, 6TGR; assay type: in vivo, mouse; conditions: for activity against drug resistant cells (words): mouse, in vivo

Compound: Sc1ncnc2nc[nH]c12 [6-Mercaptopurine]
- Residual cells (% of control brain) (L1210 cells [1]): 37%
- inducement of drug resistant cell lines [2]: inducement of drug resistant cell line occurs
- activity against adenocarcinoma (adenocarcinoma): highly active against adenocarcinoma
- Activity rating δT/δC [3]: 99

Compound: NSc1nc(N)nc2nc[nH]c12 [Compound 2, 2-Aminopurine-6-sulfenamide]
- MTD ([4]; ip, DMSO vehicle, BDF1 mice): 37 mg/kg
- MTD ([4]; ip, NaOH vehicle, BDF1 mice): 104 mg/kg

Compound: NSc1ncnc2c1ncn2[C@@H]1O[C@H](CO)[C@@H](O)[C@H]1O [Compound 6, 9-β-D-Ribofuranosyl-9H-purine-6-sulfenamide]
- MTD ([4]; ip, L1210-inoculated BDF1 mice): 480 mg/kg
- Max. sol. dosage [5]: 480 mg/kg

Compound: NS(=O)(=O)c1ncnc2c1ncn2[C@@H]1O[C@H](CO)[C@@H](O)[C@H]1O [Compound 8, 9-β-D-Ribofuranosyl-9H-purine-6-sulfonamide]
- MTD ([4]; ip, L1210-inoculated BDF1 mice): 173 mg/kg
- Max. sol. dosage [5]: 480 mg/kg

Compound: NS(=O)(=O)c1ncnc2c1ncn2[C@@H]1O[C@H](CO)[C@@H](O)[C@@H]1O [Compound 12, 9-β-D-Arabinofuranosyl-9H-purine-6-sulfonamide]
- MTD ([4]; ip, L1210-inoculated BDF1 mice): 173 mg/kg
- Max. sol. dosage [5]: 173 mg/kg

Compound: NSc1ncnc2c1ncn2[C@H]1C[C@H](O)[C@@H](CO)O1 [Compound 14, 9-(2-Deoxy-β-D-erythro-pentofuranosyl)-9H-purine-6-sulfenamide]
- MTD ([4]; ip, L1210-inoculated BDF1 mice): 288 mg/kg
- Max. sol. dosage [5]: 800 mg/kg

Compound: N[S+]([O-])c1ncnc2c1ncn2[C@H]1C[C@H](O)[C@@H](CO)O1 (stereo partly drawn) [Compound 15, 9-(2-Deoxy-β-D-erythro-pentofuranosyl)-9H-ourine-6-sulfinamide]
- Cells surviving treatment (% of day 0 innoc.) (L1210 cells [6]): 16%
- MTD ([4]; ip, L1210-inoculated BDF1 mice): 104 mg/kg
- % ILS (L1210 cells [7]; single QD day 1 ip): 33%
- Max. sol. dosage [5]: 800 mg/kg

Compound: NS(=O)(=O)c1ncnc2c1ncn2[C@H]1C[C@H](O)[C@@H](CO)O1 [Compound 16, 9-(2-Deoxy-β-D-erythro-pentofuranosYl)-9H-purine-6-sulfonamide]
- MTD ([4]; ip, L1210-inoculated BDF1 mice): 173 mg/kg
- Max. sol. dosage [5]: 800 mg/kg

Compound: NSc1nc(N)nc2c1ncn2[C@@H]1O[C@H](CO)[C@@H](O)[C@H]1O [Compound 18, 2-amino-9-β-D-ribofuranosyl-9H-purine-6-sulfenamide]
- intracranial activity (L1210 cells [1]): active intracranially
- Activity against I.C. L1210 cells, Cell Kill (L1210 cells [1]): 57.3 x
- crossing of blood brain barrier / CNS penetration (words) (L1210 cells [1]): effectively cross the blood brain barrier
- MTD ([4]; ip, L1210-inoculated BDF1 mice): 22 mg/kg
- generation of drug resistant cell lines (words) [8]: does generate drug resistant cell lines; also recorded: generates drug resistant cells
- oral activity (words) (L1210 cells [7]): Oral activity is seen
- Activity against I.P. L1210 cells, T/C (L1210 cells [7]; oral 8 mg/kg, qd day 1): 147.0%
- Activity against I.P. L1210 cells, T/C (L1210 cells [7]; oral 13 mg/kg, qd day 1): 147.0%
- Activity against I.P. L1210 cells, T/C (L1210 cells [7]; oral 22 mg/kg, qd day 1): 153.0%
- % ILS (L1210 cells [7]; single agent day 1, Compound 19 173 mg/kg, Compound 18 22 mg/kg (Table 12)): 51%
- Activity against I.P. L1210 cells resistant to 6MP, 6TG, 6TGR, T/C ([9]; 22 mg/kg, qd day 1): 93.8%
- activity against drug resistant cells (words) [9]: shows no activity
- Max. sol. dosage [5]: 22 mg/kg

Compound: Nc1nc(S(N)(=O)=O)c2ncn([C@@H]3O[C@H](CO)[C@@H](O)[C@H]3O)c2n1 [Compound 20, 2-amino-9-β-D-ribofuranosyl-9H-purine-6-sulfonamide]
- intracranial activity (L1210 cells [1]): no intracranial activity is seen
- Activity against I.C. L1210 cells, Cell Kill (L1210 cells [1]): 0.0 x
- crossing of blood brain barrier / CNS penetration (words) (L1210 cells [1]): lack of oral activity and CNS penetration
- MTD ([4]; ip, L1210-inoculated BDF1 mice): 62 mg/kg
- oral activity (words) (L1210 cells [7]): not present
- Activity against I.P. L1210 cells, T/C (L1210 cells [7]; oral 22 mg/kg, bid days 1,4,7): 103.3%
- Activity against I.P. L1210 cells, T/C (L1210 cells [7]; oral 37 mg/kg, bid days 1,4,7): 103.3%
- Activity against I.P. L1210 cells, T/C (L1210 cells [7]; oral 62 mg/kg, bid days 1,4,7): 103.3%
- oral activity (words) (L1210 cells [7]; listed as 6-sulfonamide analog): lack of oral activity
- Activity against I.P. L1210 cells resistant to 6MP, 6TG, 6TGR, T/C ([9]; 22 mg/kg, bid days 1,4,7): 106.7%
- Activity against I.P. L1210 cells resistant to 6MP, 6TG, 6TGR, T/C ([9]; 37 mg/kg, bid days 1,4,7): 130.0%
- Activity against I.P. L1210 cells resistant to 6MP, 6TG, 6TGR, T/C ([9]; 62 mg/kg, bid days 1,4,7): 163.3%
- activity against drug resistant cells (words) [9]: active
- Max. sol. dosage [5]: 62 mg/kg

Compound: NSc1nc(N)nc2c1ncn2[C@H]1C[C@H](O)[C@@H](CO)O1 [Compound 22, 2-Amino-9-(2-deoxy-β-D-erythro-pentofuranosyl)-9H-purine-6-sulfenamide]
- MTD ([4]; ip, L1210-inoculated BDF1 mice): 173 mg/kg
- Max. sol. dosage [5]: 173 mg/kg

Compound: Nc1nc([S+](N)[O-])c2ncn([C@H]3C[C@H](O)[C@@H](CO)O3)c2n1 (stereo partly drawn) [Compound 23, 2-amino-9-(2-deoxy-β-D-erythro-pentofuranosyl)-9H-purine-6-sulfinamide]
- MTD ([4]; ip, L1210-inoculated BDF1 mice): 173 mg/kg
- in vivo antitumor activity (L1210 cells [7]; mouse, in vivo): good activity
- Max. sol. dosage [5]: 480 mg/kg
- water solubility [5]: increased water solubility

Compound: Nc1nc(S(N)(=O)=O)c2ncn([C@H]3C[C@H](O)[C@@H](CO)O3)c2n1 [Compound 24, 2-Amino-9-(2-deoxy-β-D-erythro-pentofuranosyl)-9H-purine-6-sulfonamide]
- MTD ([4]; ip, L1210-inoculated BDF1 mice): 288 mg/kg
- Max. sol. dosage [5]: 480 mg/kg

Compound: NSc1nc(N)nc2c1ncn2[C@@H]1O[C@@H]2COP(=O)(O)O[C@H]2[C@H]1O [Compound 29, 2-Amino-9-β-D-ribofuranosylpurine-6-sulfenamide 3',5'-cyclic phosphate]
- Cells surviving treatment (% of day 0 innoc.) (L1210 cells [6]): 1.7%
- MTD ([4]; L1210-inoculated BDF1 mice): 480 mg/kg
- % ILS (L1210 cells [7]; single QD day 1 ip): 59%
- Max. sol. dosage ([5]; in water): 480 mg/kg

Compound: Nc1nc([S+](N)[O-])c2ncn([C@@H]3O[C@@H]4COP(=O)(O)O[C@H]4[C@H]3O)c2n1 (stereo partly drawn) [Compound 30, 2-Amino-9-β-D-ribofuranosylpurine-6-sulfinamide 3',5'-cyclic phosphate]
- Cells surviving treatment (% of day 0 innoc.) (L1210 cells [6]): 1.7%
- MTD ([4]; L1210-inoculated BDF1 mice): 288 mg/kg
- % ILS (L1210 cells [7]; single QD day 1 ip): 59%
- Max. sol. dosage ([5]; in water): 288 mg/kg

Compound: NSc1nc(N)nc2c1ccn2[C@H]1C[C@H](O)[C@@H](CO)O1 [Compound 38, 2-Amino-7-(2-deoxy-β-D-erythro-pentofuranosyl)pyrrolo[2,3-d]pyrimidine-4-sulfenamide]
- MTD ([4]; ip, L1210-inoculated BDF1 mice): 173 mg/kg
- Max. sol. dosage [5]: 173 mg/kg

Compound: Nc1ccn([C@@H]2O[C@H](CO)[C@@H](O)[C@@H]2O)c(=O)n1 [Cytosine Arabinoside]
- Residual cells (% of control brain) (L1210 cells [1]): 15%
- inducement of drug resistant cell lines [2]: inducement of drug resistant cell line occurs
- Activity rating δT/δC [3]: 73
